What was measured:
Format in all cases: in vivo
[1] = system: soybean; experiment: Test Example 4: effect on crop by soil treatment (symbol d); settings: application herbicide amount 320 g/ha
Outline: (§1)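 Seeds were sown in spots on sterilized diluvial soil in a plastic box and covered with about 1.5 cm of soil. Plants were then grown in a greenhouse at 25° C. to 30° C.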

[2] = system: rapeseed; experiment: Test Example 4: effect on crop by soil treatment (symbol g); settings: application herbicide amount 320 g/ha
Outline: as §1

[3] = system: directly sowed rice plant; experiment: Test Example 3: effect on crop by foliage application, Wagner pot (symbol b); settings: application herbicide amount 320 g/ha, Table 24
Outline: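 Steps: fill a 1/10000-are Wagner pot with alluvial soil; add water and mix to submerge at 0.1–0.5 cm depth; sow rice plus Echinochloa crus-galli var. crus-galli, Leptochloa chinensis and Cyperus difformis; grow in a 25–30 °C greenhouse.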

[4] = system: Digitaria ciliaris; experiment: Test Example 4: herbicidal effect by soil treatment (symbol F); settings: application herbicide amount 320 g/ha
Outline: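 Seeds were sown in sterilized diluvial soil, covered with about 1.5 cm of soil, and the soil surface was sprayed with a water-diluted emulsion of the compound at a predetermined rate. Plants grew in a greenhouse at 25° C. to 30° C.; effects were scored visually 3 weeks after application.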

[5] = system: Galium spurium; experiment: Test Example 5: herbicidal effect by foliage application, plastic box (symbol Q); settings: 320 g/ha, 3 weeks after application
Outline: (§2)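 Sowing in sterilized diluvial soil, 14 days' greenhouse growth at 25° C. to 30° C., then uniform small-sprayer foliar application of aqueous emulsion dilution; plants scored three weeks afterwards.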

[6] = system: Lolium multiflorum Lam.; experiment: Test Example 5: herbicidal effect by foliage application, plastic box (symbol K); settings: 320 g/ha, 3 weeks after application
Outline: as §2

[7] = system: beet; experiment: Test Example 5: effect on crop by foliage application, plastic box (symbol f); settings: 320 g/ha, 3 weeks after application
Outline: (§3)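 A greenhouse held between 25° C. and 30° C. was used to grow plants sown spot-wise, beneath ~1.5 cm of soil, in boxes of sterilized diluvial soil.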

[8] = system: Amaranthus retroflexus; experiment: Test Example 5: herbicidal effect by foliage application, plastic box (symbol N); settings: 320 g/ha, 3 weeks after application
Outline: as §2

[9] = system: wheat; experiment: Test Example 5: effect on crop by foliage application, plastic box (symbol e); settings: 320 g/ha, 3 weeks after application
Outline: as §3

[10] = system: Chenopodium album; experiment: Test Example 5: herbicidal effect by foliage application, plastic box (symbol O); settings: 320 g/ha, 3 weeks after application
Outline: as §2

[11] = system: Monochoria vaginalis; experiment: Test Example 1: herbicidal activity, application before weed generation in submerged conditions (symbol C); settings: application herbicide amount 320 g/ha
Outline: (§4)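 Paddy pre-emergence test. Formulated emulsion, water-diluted to a predetermined rate, is applied to floodwater on sowing day; rice transplanted at 2.5 leaves. Effect read at 3 weeks on a 0–5 herbicidal-ratio scale.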

[12] = system: Echinochloa oryzacola Vasing.; experiment: Test Example 1: herbicidal activity, application before weed generation in submerged conditions (symbol A); settings: application herbicide amount 320 g/ha
Outline: as §4

[13] = system: soybean; experiment: Test Example 5: effect on crop by foliage application, plastic box (symbol d); settings: 320 g/ha, 3 weeks after application
Outline: as §3

[14] = system: Veronica persica; experiment: Test Example 5: herbicidal effect by foliage application, plastic box (symbol R); settings: 320 g/ha, 3 weeks after application
Outline: as §2

[15] = system: wheat; experiment: Test Example 4: effect on crop by soil treatment (symbol e); settings: application herbicide amount 320 g/ha
Outline: as §1

[16] = system: Echinochloa crus-galli var. crus-galli; experiment: Test Example 5: herbicidal effect by foliage application, plastic box (symbol H); settings: 320 g/ha, 3 weeks after application
Outline: as §2

In the case of CC#Cc1cc(C)c(C2=C(O)CC(CC(=NOCC(F)(F)F)C(C)C)C2=O)c(C)c1 (stereo not shown) [9-015], the “Effect on crop grade, d: soybean” value [1] is reported as 0 (Herbicidal ratio of 5% or lower (almost no effect)), the “Effect on crop grade, g: rapeseed” value [2] is reported as 0 (Herbicidal ratio of 5% or lower (almost no effect)) and the “b (directly sowed rice plant) effect on crop grade” value [3] is reported as 5 (Herbicidal ratio of 90% or more (almost completely withered)). The “Herbicidal effect grade, F: Digitaria ciliaris” value (shortened to “Herbicidal effect grade, F”) [4] was 5 (Herbicidal ratio of 90% or more (almost completely withered)), the “Q: Galium spurium, herbicidal effect grade” value (“Q: Galium spurium” below) [5] was 2 (Herbicidal ratio of 20% or higher and lower than 40%) and the “K: Lolium multiflorum Lam., herbicidal effect grade” value [6] was 5 (Herbicidal ratio of 90% or more (almost completely withered)). The “f: beet, effect on crop grade” value [7] was 0 (Herbicidal ratio of 5% or lower (almost no effect)), the “N: Amaranthus retroflexus, herbicidal effect grade” value (“N: Amaranthus retroflexus” for short) [8] was 0 (Herbicidal ratio of 5% or lower (almost no effect)) and the “e: wheat, effect on crop grade” value [9] was 3 (Herbicidal ratio of 40% or higher and lower than 70%). For the same molecule, the “O: Chenopodium album, herbicidal effect grade” value (from here on “O: Chenopodium album”) [10] was 3 (Herbicidal ratio of 40% or higher and lower than 70%), the “C (Monochoria vaginalis) herbicidal effect grade” value [11] was 1 (Herbicidal ratio of 5% or higher and lower than 20%) and the “A (Echinochloa oryzacola Vasing.) herbicidal effect grade” value [12] was 5 (Herbicidal ratio of 90% or more (almost completely withered)). For the same molecule, the “d: soybean, effect on crop grade” value [13] was 0 (Herbicidal ratio of 5% or lower (almost no effect)), the “R: Veronica persica, herbicidal effect grade” value (“R: Veronica persica” for short) [14] was 4 (Herbicidal ratio of 70% or higher and lower than 90%) and the “Effect on crop grade, e: wheat” value [15] was 3 (Herbicidal ratio of 40% or higher and lower than 70%). For the same molecule, the “H: Echinochloa crus-galli var. crus-galli, herbicidal effect grade” value [16] was 5 (Herbicidal ratio of 90% or more (almost completely withered)).
COc1cc(Br)cc(C)c1C1=C(O)CC(CC(=O)C2CC2)C1=O (racemic) [14-001] was tested, and the “d: soybean, effect on crop grade” value [1] was 0 (Herbicidal ratio of 5% or lower (almost no effect)), the “g: rapeseed, effect on crop grade” value [2] was 0 (Herbicidal ratio of 5% or lower (almost no effect)) and the “b (directly sowed rice plant) effect on crop grade” value [3] was 5 (Herbicidal ratio of 90% or more (almost completely withered)). For the same molecule, the “F: Digitaria ciliaris, herbicidal effect grade” value [4] was 5 (Herbicidal ratio of 90% or more (almost completely withered)), the “Q: Galium spurium” value [5] was 0 (Herbicidal ratio of 5% or lower (almost no effect)) and the “K: Lolium multiflorum Lam., herbicidal effect grade” value [6] was 5 (Herbicidal ratio of 90% or more (almost completely withered)). For the same molecule, the “f: beet, effect on crop grade” value [7] was 0 (Herbicidal ratio of 5% or lower (almost no effect)), the “N: Amaranthus retroflexus” value [8] was 0 (Herbicidal ratio of 5% or lower (almost no effect)) and the “e: wheat, effect on crop grade” value [9] was 4 (Herbicidal ratio of 70% or higher and lower than 90%). The “O: Chenopodium album” value [10] was 0 (Herbicidal ratio of 5% or lower (almost no effect)), the “C (Monochoria vaginalis) herbicidal effect grade” value [11] was 3 (Herbicidal ratio of 40% or higher and lower than 70%) and the “A (Echinochloa oryzacola Vasing.) herbicidal effect grade” value [12] was 4 (Herbicidal ratio of 70% or higher and lower than 90%). The “d: soybean, effect on crop grade” value [13] was 2 (Herbicidal ratio of 20% or higher and lower than 40%), the “R: Veronica persica” value [14] was 2 (Herbicidal ratio of 20% or higher and lower than 40%) and the “e: wheat, effect on crop grade” value [15] was 0 (Herbicidal ratio of 5% or lower (almost no effect)). For the same molecule, the “H: Echinochloa crus-galli var. crus-galli, herbicidal effect grade” value [16] was 5 (Herbicidal ratio of 90% or more (almost completely withered)).
With CC(CC1CC(O)=C(c2c(C)cc(-c3ccc(Cl)cc3)cc2C)C1=O)=NOCC(F)(F)F (stereo not shown) [9-024] the “Effect on crop grade, d: soybean” value [1] was 0 (Herbicidal ratio of 5% or lower (almost no effect)), the “Effect on crop grade, g: rapeseed” value [2] was 0 (Herbicidal ratio of 5% or lower (almost no effect)) and the “b (directly sowed rice plant) effect on crop grade” value [3] was 5 (Herbicidal ratio of 90% or more (almost completely withered)). The “Herbicidal effect grade, F” value [4] was 5 (Herbicidal ratio of 90% or more (almost completely withered)), the “Q: Galium spurium” value [5] was 4 (Herbicidal ratio of 70% or higher and lower than 90%) and the “K: Lolium multiflorum Lam., herbicidal effect grade” value [6] was 5 (Herbicidal ratio of 90% or more (almost completely withered)). For the same molecule, the “f: beet, effect on crop grade” value [7] was 0 (Herbicidal ratio of 5% or lower (almost no effect)), the “N: Amaranthus retroflexus” value [8] was 1 (Herbicidal ratio of 5% or higher and lower than 20%) and the “e: wheat, effect on crop grade” value [9] was 3 (Herbicidal ratio of 40% or higher and lower than 70%). The “O: Chenopodium album” value [10] was 4 (Herbicidal ratio of 70% or higher and lower than 90%), the “C (Monochoria vaginalis) herbicidal effect grade” value [11] was 2 (Herbicidal ratio of 20% or higher and lower than 40%) and the “A (Echinochloa oryzacola Vasing.) herbicidal effect grade” value [12] was 5 (Herbicidal ratio of 90% or more (almost completely withered)). For the same molecule, the “d: soybean, effect on crop grade” value [13] was 0 (Herbicidal ratio of 5% or lower (almost no effect)), the “R: Veronica persica” value [14] was 4 (Herbicidal ratio of 70% or higher and lower than 90%) and the “Effect on crop grade, e: wheat” value [15] was 2 (Herbicidal ratio of 20% or higher and lower than 40%). The “H: Echinochloa crus-galli var. crus-galli, herbicidal effect grade” value [16] was 5 (Herbicidal ratio of 90% or more (almost completely withered)).
CON=C(C)CC1(C)CC(O)=C(c2c(C)cc(C)cc2C)C1=O (mixture of isomers) [11-002] was tested, and the “Effect on crop grade, d: soybean” value [1] was 0 (Herbicidal ratio of 5% or lower (almost no effect)), the “Effect on crop grade, g: rapeseed” value [2] was 2 (Herbicidal ratio of 20% or higher and lower than 40%) and the “b (directly sowed rice plant) effect on crop grade” value [3] was 5 (Herbicidal ratio of 90% or more (almost completely withered)). For the same molecule, the “Herbicidal effect grade, F” value [4] was 0 (Herbicidal ratio of 5% or lower (almost no effect)), the “Q: Galium spurium” value [5] was 0 (Herbicidal ratio of 5% or lower (almost no effect)) and the “K: Lolium multiflorum Lam., herbicidal effect grade” value [6] was 5 (Herbicidal ratio of 90% or more (almost completely withered)). For the same molecule, the “f: beet, effect on crop grade” value [7] was 0 (Herbicidal ratio of 5% or lower (almost no effect)), the “N: Amaranthus retroflexus” value [8] was 0 (Herbicidal ratio of 5% or lower (almost no effect)) and the “e: wheat, effect on crop grade” value [9] was 2 (Herbicidal ratio of 20% or higher and lower than 40%). The “O: Chenopodium album” value [10] was 0 (Herbicidal ratio of 5% or lower (almost no effect)), the “C (Monochoria vaginalis) herbicidal effect grade” value [11] was 0 (Herbicidal ratio of 5% or lower (almost no effect)) and the “A (Echinochloa oryzacola Vasing.) herbicidal effect grade” value [12] was 2 (Herbicidal ratio of 20% or higher and lower than 40%). For the same molecule, the “d: soybean, effect on crop grade” value [13] was 1 (Herbicidal ratio of 5% or higher and lower than 20%), the “R: Veronica persica” value [14] was 0 (Herbicidal ratio of 5% or lower (almost no effect)) and the “Effect on crop grade, e: wheat” value [15] was 0 (Herbicidal ratio of 5% or lower (almost no effect)). The “H: Echinochloa crus-galli var. crus-galli, herbicidal effect grade” value [16] was 5 (Herbicidal ratio of 90% or more (almost completely withered)).

Source: patent US11000033B2, “Ketone or oxime compound, and herbicide” (NISSAN CHEMICAL CORPORATION, priority 2014, dated 2021)
